Source: patent US20070148660A1, “Treatment of maladaptive substance use with H-ras antagonists” (The Regents of the University of California, priority 2005, published 2007)

Key:
[1] = test system: NMDAR; assay: NMDAR-mediated fEPSPs, hippocampal CA1 field recording; type: cell-based, mouse; settings: bath application of 80 mM ethanol, n=11
Method: Electrophysiological recordings were performed in C57BL/6J mice ranging from P21 to P26. Briefly, mice were anesthetized with halothane and decapitated as per University of California, San Francisco animal care guidelines. Horizontal sections of the hippocampus ([…]) were prepared with a vibratome (Leica, Nussloch, Germany). Slices were placed in a holding chamber and allowed to recover for at least 1 hr before being placed in the recording chamber and superfused with aCSF saturated with 95% O2/5% CO2 and containing (in mM): 119 NaCl, 1.6 KCl, 1.0 NaH2PO4, 1.3 MgCl2 (for EPSCs) or 0.01 MgCl2 (for field excitatory postsynaptic potentials (fEPSPs)), 2.5 CaCl2, 26.2 NaHCO3 and 11 glucose. […]
fEPSPs were recorded using a MultiClamp 700A amplifier (Axon Instruments, Union City, Calif.) with […] patch pipettes filled with 1 M NaCl and 25 mM HEPES. To evoke fEPSPs, Schaffer collateral/commissural afferents in hippocampal CA1 region were stimulated with 0.1 Hz pulses using steel bipolar microelectrodes at intensities adjusted to produce an evoked response that was 50% of the maximal recorded fEPSP for each recording. fEPSPs were filtered at 1 kHz, digitized at 10 kHz and collected on-line using with pClamp 9 (Axon Instrument, Union City, Calif.). […]

[2] = test system: NR2A subunits; settings: 100 mM ethanol, 15 min, hippocampal slices
Method: (§1) Transverse hippocampal slices ([…]) were prepared from 10- to 12-week-old C57BL/6J mice. Slices were allowed to recover for 90 min in artificial cerebrospinal fluid (aCSF) saturated with 95% O2/5% CO2 containing (in mM): 126 NaCl, 1.2 KCl, 1.2 NaH2PO4, 1.2 MgCl2, 2.4 CaCl2, 18 NaHCO3, and 11 glucose. Following recovery, slices were treated with aCSF (control) or ethanol at room temperature, after which the slices were rinsed in cold aCSF, and used either for cross-linking experiments, for Ras activity assay, or for immunoprecipitation. In experiments using Tat-H-Ras DN or the Tat-peptide, the slices were pretreated with either aCSF (control) or 2 μM Tat-H-Ras DN or Tat-peptide for 2 hrs at room temperature, followed by ethanol treatments.
(§2) Chymotrypsin experiments were performed as described previously (22), with minor modifications. Following recovery, slices were treated with aCSF or 0.5 mg/ml chymotrypsin at 32° C. for 5 min. […] The protein concentration was determined using the BCA assay, followed by SDS-PAGE and Western blot analysis.
(§3) Proteins were separated by SDS-PAGE and blotted onto a nitrocellulose membrane. […] Results were quantified by NIH Image 1.61.

[3] = test system: NR2B; settings: ethanol, hippocampal slices, data not shown
Method: as §1, §2, §3

CCO [ethanol]
inhibition of NMDAR-mediated fEPSPs [1]: 47+8% | internalization of the NR2A subunits (chymotrypsin) [2]: significantly increased | surface or intracellular levels of NR2B (chymotrypsin) [3]: no effects
